Data on two molecules can be found in patent publication US20230398068A1 (priority 2020, published 2023).

A short description of series [1]: Transfer rate assessment, liquid formulation to aerosol (Cambridge filter pad, LC-HR-MS). The following applies: 30 puffs collected.
The nature of series [2]: Thermal decomposition during thermal aerosolization (LC-HR-MS). The following applies: LC-HR-MS spectra of aerosol sample.
For series [3] the following is noted: Frisk-Holmberg et al., Cui et al.; cited from earlier work.
Series [4] deals with 3D organotypic human bronchial cultures. Kind of series: Transepithelial electrical resistance (TEER). Conditions: post 24 h exposure.
Series [5] deals with SARS-CoV-2 clinically isolated strain. Conditions: Vero cells, 24 hours, Yao et al.; cited from earlier work.
A short description of series [6]: Aerosol particle size distribution (Aerodynamic Particle Sizer). The following applies: thermal aerosolization 200-220° C., 40 mg/mL in propylene glycol.
Series [7] relates to novel coronavirus (2019-nCoV). The following applies: cited from earlier work.

Turning to `CCN(CCO)CCCC(C)Nc1ccnc2cc(Cl)ccc12` (stereo not shown) [hydroxychloroquine], in series [1] (100 mg/mL hydroxychloroquine liquid formulation), the “amount per puff in aerosol” value was determined as 330.32 µg. Also, the “decomposition during thermal aerosolization” value in series [2] is listed as “no decomposition”.
`CCN(CC)CCCC(C)Nc1ccnc2cc(Cl)ccc12` (stereo not shown) [chloroquine]: in series [3], the “plasma concentration at which no adverse reactions are observed” value is 400 ng/mL and the “warning limit plasma concentration at which 80% of the subjects showed adverse effects” value was 800 ng/mL. In addition, the TEER entry in series [4] (50 puffs) is “very low TEER values for two replicates”. The TEER result in series [4] (100 puffs) was “no overall effect”. The “amount per puff in aerosol” value in series [1] (40 mg/mL chloroquine liquid formulation) was 149.69 µg. The “decomposition during thermal aerosolization” value in series [2] is on record as “no decomposition”. In series [5], the EC50 is 23.9 µM. Further, the “median aerodynamic diameter of aerosol particles” value in series [6] was found to be 1.3 μm. Also, the EC50 in series [7] (block of COVID-19 infection in vitro, Wang et al., read-out: half-maximal effective concentration (EC50)) was 1.13 µM. Besides, in series [7] (values from Wang et al.), the “in vitro EC50” value was 0.362 µg/mL and the “in vitro EC90” value is 2.208 µg/mL.
